Patent US20120202847A1, “Novel Tetrahydroisoquinoline Compounds” (priority 2009, published 2012)

system: C57BL/6N mice; experiment: Feeding suppressant activity on a high-fat diet; type: in vivo; settings: male C57BL/6N mice, oral dose of 3 mg/kg; food intake 6 hours after initiation of high-fat diet feeding
Experimental: Male C57BL/6N mice (7-12 weeks old, body weight: 17-25 g, Charles River Laboratories Japan Inc.) were individually housed and fed on a high-fat diet (fat content: 45 kcal %: Research Diets, Inc. D12451) for 1 week or longer for acclimatization. Based on the food intake during the period, the animals were equally assigned to experimental groups and fasted overnight. Then, a vehicle (0.5% methylcellulose) or each test compound (1 to 10 mg/kg) suspended in vehicle was orally administered (10 mL/kg) to each group. 30 minutes after administration, the animals were fed on a high-fat diet, and the food intake was measured 6 hours after initiation of feeding. The feeding suppressant activity of each test compound was calculated based on the equation shown below.
Feeding suppressant activity(%)=[(Food intake of Vehicle group)−(Food intake of each test compound group)]/[(Food intake of Vehicle group)]×100

SMILES | Feeding suppressant activity [%]
O=C(O)C[C@H]1CC[C@H](OC(=O)N2CCc3cc(NC(=O)Nc4ccccc4Cl)ccc3C2)CC1 [Example 2, trans-6-[3-(2-chloro-phenyl)-ureido]-3,4-dihydro-1H-isoquinoline-2-carboxylic acid 4-carboxymethyl-cyclohexyl ester] | 70

target: T1, DGAT1 enzyme (Homo sapiens, UniProt O75907); experiment: DGAT1 inhibitory activity test; type: biochemical; settings: test compound concentration of 0.05 μg/ml; [14C]-oleoyl-CoA, 23° C., 30 minutes; read-out: Inhibitory Rate
T1 construct: made in house
T1 sequence (O75907 1-488): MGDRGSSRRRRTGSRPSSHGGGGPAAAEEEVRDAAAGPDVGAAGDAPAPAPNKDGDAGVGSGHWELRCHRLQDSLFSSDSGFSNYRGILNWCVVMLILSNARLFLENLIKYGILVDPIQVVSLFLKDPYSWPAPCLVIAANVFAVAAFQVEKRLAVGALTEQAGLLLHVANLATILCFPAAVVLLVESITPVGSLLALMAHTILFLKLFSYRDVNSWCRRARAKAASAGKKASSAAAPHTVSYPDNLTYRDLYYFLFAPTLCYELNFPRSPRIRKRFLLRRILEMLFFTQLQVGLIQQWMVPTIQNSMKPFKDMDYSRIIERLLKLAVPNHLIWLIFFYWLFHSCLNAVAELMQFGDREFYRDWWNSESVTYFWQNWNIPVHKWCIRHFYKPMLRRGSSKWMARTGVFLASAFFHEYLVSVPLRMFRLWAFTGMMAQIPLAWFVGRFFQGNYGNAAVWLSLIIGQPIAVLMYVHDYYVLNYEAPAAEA
Experimental: (1) Preparation of DGAT1 Enzyme
DGAT1 enzyme was prepared and stored according to the method described in US2007/0249620.
(2) DGAT1 Inhibitory Activity Test
A reaction solution having the following composition was incubated at room temperature (23° C.) for 30 minutes: 175 mM Tris-HCl (pH 8.0), 8 mM MgCl2, 1 mg/ml BSA, 0.3 mM 1,2-dioleoyl-sn-glycerol (10-fold concentration of EtOH solution, 10% added), 10 μM [^14C]-oleoyl-CoA (approximately 50 mCi/mmol), 0.5% Triton X-100, the DGAT1 enzyme (10 μg) obtained in Test Example 1(1), and a test compound or vehicle (DMSO/MeOH, 7:3 solution, 5% added), 50 μl in total. A reaction stop solution […] consisting of isopropanol/1-heptane/water (80:20:2, v/v/v) was added to the reaction solution and stirred. Subsequently, water […] and 1-heptane (100 μl) were added thereto and stirred. The 1-heptane layer […] was spotted onto a TLC plate and developed with a developing solvent consisting of 1-hexane/diethyl ether/acetic acid (85:15:1, v/v/v). The radioactivity of the triglyceride fraction was quantified using BAS2500 Bio Image Analyzer (FUJIFILM) and compared with the control. The inhibitory activity of the test compound was calculated according to the formula shown below. In this context, the radioactivity at no reaction (0 minute incubation) was used as background.
Inhibitory Rate=100−[(Radioactivity of sample supplemented with test compound)−(Background)]/[(Radioactivity of control)−(Background)]×100

SMILES | inhibition at 0.05 µg/mL [%]
O=C(O)C[C@H]1CC[C@H](OC(=O)N2CCc3cc(NC(=O)Nc4ccccc4Cl)ccc3C2)CC1 [Example 2, trans-6-[3-(2-chloro-phenyl)-ureido]-3,4-dihydro-1H-isoquinoline-2-carboxylic acid 4-carboxymethyl-cyclohexyl ester] | ≥ 50
Cc1cc(Cl)ccc1NC(=O)Nc1ccc2c(c1)CCN(C(=O)O[C@H]1CC[C@H](CC(=O)O)CC1)C2 [Example 26] | ≥ 50
Cc1cccc(NC(=O)Nc2ccc3c(c2)CCN(C(=O)O[C@H]2CC[C@H](CC(=O)O)CC2)C3)c1Cl [Example 27, trans-6-[3-(2-chloro-3-methyl-phenyl)-ureido]-3,4-dihydro-1H-isoquinoline-2-carboxylic acid 4-carboxymethyl-cyclohexyl ester] | ≥ 50
O=C(O)C[C@H]1CC[C@H](OC(=O)N2CCc3cc(NC(=O)Nc4ccc(Cl)cc4C(F)(F)F)ccc3C2)CC1 [Example 28, trans-6-[3-(4-chloro-2-trifluoromethyl-phenyl)-ureido]-3,4-dihydro-1H-isoquinoline-2-carboxylic acid 4-carboxymethyl-cyclohexyl ester] | ≥ 50
O=C(O)C[C@H]1CC[C@H](OC(=O)N2CCc3cc(NC(=O)Nc4ccc(C(F)(F)F)cc4Cl)ccc3C2)CC1 [Example 29, trans-6-[3-(2-chloro-4-trifluoromethyl-phenyl)-ureido]-3,4-dihydro-1H-isoquinoline-2-carboxylic acid 4-carboxymethyl-cyclohexyl ester] | ≥ 50
Cc1ccc(NC(=O)Nc2ccc3c(c2)CCN(C(=O)O[C@H]2CC[C@H](CC(=O)O)CC2)C3)cc1F [Example 30, trans-6-[3-(3-fluoro-4-methyl-phenyl)-ureido]-3,4-dihydro-1H-isoquinoline-2-carboxylic acid 4-carboxymethyl-cyclohexyl ester] | ≥ 50
O=C(O)C[C@H]1CC[C@H](OC(=O)N2CCc3cc(NC(=O)Nc4cc(F)cc(F)c4)ccc3C2)CC1 [Example 31, trans-6-[3-(3,5-difluoro-phenyl)-ureido]-3,4-dihydro-1H-isoquinoline-2-carboxylic acid 4-carboxymethyl-cyclohexyl ester] | ≥ 50
O=C(O)C[C@H]1CC[C@H](OC(=O)N2CCc3cc(NC(=O)Nc4ccc(F)c(Cl)c4)ccc3C2)CC1 [Example 32, trans-6-[3-(3-chloro-4-fluoro-phenyl)-ureido]-3,4-dihydro-1H-isoquinoline-2-carboxylic acid 4-carboxymethyl-cyclohexyl ester] | ≥ 50
Cc1cc(C)cc(NC(=O)Nc2ccc3c(c2)CCN(C(=O)O[C@H]2CC[C@H](CC(=O)O)CC2)C3)c1 [Example 33, trans-6-[3-(3,5-dimethyl-phenyl)-ureido]-3,4-dihydro-1H-isoquinoline-2-carboxylic acid 4-carboxymethyl-cyclohexyl ester] | ≥ 50
Cc1ccc(NC(=O)Nc2ccc3c(c2)CCN(C(=O)O[C@H]2CC[C@H](CC(=O)O)CC2)C3)cc1Cl [Example 34, trans-6-[3-(3-chloro-4-methyl-phenyl)-ureido]-3,4-dihydro-1H-isoquinoline-2-carboxylic acid 4-carboxymethyl-cyclohexyl ester] | ≥ 50
Cc1cccc(NC(=O)Nc2ccc3c(c2)CCN(C(=O)O[C@H]2CC[C@H](CC(=O)O)CC2)C3)c1C [Example 35, trans-6-[3-(2,3-dimethyl-phenyl)-ureido]-3,4-dihydro-1H-isoquinoline-2-carboxylic acid 4-carboxymethyl-cyclohexyl ester] | ≥ 50
Cc1c(Cl)cccc1NC(=O)Nc1ccc2c(c1)CCN(C(=O)O[C@H]1CC[C@H](CC(=O)O)CC1)C2 [Example 36, trans-6-[3-(3-chloro-2-methyl-phenyl)-ureido]-3,4-dihydro-1H-isoquinoline-2-carboxylic acid 4-carboxymethyl-cyclohexyl ester] | ≥ 50
O=C(O)C[C@H]1CC[C@H](OC(=O)N2CCc3cc(NC(=O)Nc4cccc(Cl)c4Cl)ccc3C2)CC1 [Example 37, trans-6-[3-(2,3-dichloro-phenyl)-ureido]-3,4-dihydro-1H-isoquinoline-2-carboxylic acid 4-carboxymethyl-cyclohexyl ester] | ≥ 50
Cc1cc(NC(=O)Nc2ccc3c(c2)CCN(C(=O)O[C@H]2CC[C@H](CC(=O)O)CC2)C3)ccc1F [Example 38, trans-6-[3-(4-fluoro-3-methyl-phenyl)-ureido]-3,4-dihydro-1H-isoquinoline-2-carboxylic acid 4-carboxymethyl-cyclohexyl ester] | ≥ 50
COc1cc(NC(=O)Nc2ccc3c(c2)CCN(C(=O)O[C@H]2CC[C@H](CC(=O)O)CC2)C3)cc(OC)c1 [Example 39, trans-6-[3-(3,5-dimethoxy-phenyl)-ureido]-3,4-dihydro-1H-isoquinoline-2-carboxylic acid 4-carboxymethyl-cyclohexyl ester] | ≥ 50
O=C(O)C[C@H]1CC[C@H](OC(=O)N2CCc3cc(NC(=O)Nc4ccc(Cl)c(Cl)c4)ccc3C2)CC1 [Example 40, trans-6-[3-(3,4-dichloro-phenyl)-ureido]-3,4-dihydro-1H-isoquinoline-2-carboxylic acid 4-carboxymethyl-cyclohexyl ester] | ≥ 50
COc1ccc(NC(=O)Nc2ccc3c(c2)CCN(C(=O)O[C@H]2CC[C@H](CC(=O)O)CC2)C3)cc1Cl [Example 41, trans-6-[3-(3-chloro-4-methoxy-phenyl)-ureido]-3,4-dihydro-1H-isoquinoline-2-carboxylic acid 4-carboxymethyl-cyclohexyl ester] | ≥ 50
COc1cccc(NC(=O)Nc2ccc3c(c2)CCN(C(=O)O[C@H]2CC[C@H](CC(=O)O)CC2)C3)c1F [Example 42, trans-6-[3-(2-fluoro-3-methoxy-phenyl)-ureido]-3,4-dihydro-1H-isoquinoline-2-carboxylic acid 4-carboxymethyl-cyclohexyl ester] | ≥ 50
O=C(O)C[C@H]1CC[C@H](OC(=O)N2CCc3cc(NC(=O)Nc4cc(Cl)cc(Cl)c4)ccc3C2)CC1 [Example 43, trans-6-[3-(3,5-dichloro-phenyl)-ureido]-3,4-dihydro-1H-isoquinoline-2-carboxylic acid 4-carboxymethyl-cyclohexyl ester] | ≥ 50
COc1ccc(NC(=O)Nc2ccc3c(c2)CCN(C(=O)O[C@H]2CC[C@H](CC(=O)O)CC2)C3)cc1OC [Example 44, trans-6-[3-(3,4-dimethoxy-phenyl)-ureido]-3,4-dihydro-1H-isoquinoline-2-carboxylic acid 4-carboxymethyl-cyclohexyl ester] | ≥ 50
COc1ccc(NC(=O)Nc2ccc3c(c2)CCN(C(=O)O[C@H]2CC[C@H](CC(=O)O)CC2)C3)cc1F [Example 45, trans-6-[3-(3-fluoro-4-methoxy-phenyl)-ureido]-3,4-dihydro-1H-isoquinoline-2-carboxylic acid 4-carboxymethyl-cyclohexyl ester] | ≥ 50
O=C(O)C[C@H]1CC[C@H](OC(=O)N2CCc3cc(NC(=O)Nc4cccc(Cl)c4)ccc3C2)CC1 [Example 46, trans-6-[3-(3-chloro-phenyl)-ureido]-3,4-dihydro-1H-isoquinoline-2-carboxylic acid 4-carboxymethyl-cyclohexyl ester] | ≥ 50
